Measured values as given in patent publication US12599136B2, “Substituted isophthalic acid diamides and their use as herbicides” (Bayer Aktiengesellschaft, priority 2020, dated 2026).

How the values were obtained:
Type in all cases: in vivo
Alopecurus myosuroides [1] = assay: Pre-emergence herbicidal action against ALOMY; conditions: 320 g/ha; visual score after 3 weeks vs untreated controls
Outline: (§1)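 Visual rating at 3 weeks vs untreated pots; 0–100% scale, 100% = plants died. Treatment: aqueous WP/EC spray onto covering soil, 600–800 l/ha, 0.2% wetter, seeds in sandy loam.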

Echinochloa crus-galli [2] = assay: Pre-emergence herbicidal action against ECHCG; conditions: visual score after 3 weeks vs untreated controls
Outline: as §1

Veronica persica [3] = assay: Pre-emergence herbicidal action against VERPE; conditions: 320 g/ha
Outline: as §1

Amaranthus retroflexus [4] = assay: Post-emergence herbicidal action against AMARE; conditions: visual assessment about 3 weeks after treatment
Outline: (§2)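 Greenhouse pot plants in sandy loam were sprayed at the one-leaf stage, 2 to 3 weeks after sowing, with WP or EC formulations as aqueous suspension or emulsion (600 to 800 l/ha water, 0.2% wetting agent). About 3 weeks later, damage was scored visually against untreated controls as % action (100% = dead, 0% = like control).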

Abutilon theophrasti [5] = assay: Pre-emergence herbicidal action against ABUTH; conditions: visual score after 3 weeks vs untreated controls
Outline: as §1

Amaranthus retroflexus [6] = assay: Pre-emergence herbicidal action against AMARE; conditions: visual score after 3 weeks vs untreated controls
Outline: as §1

Setaria viridis [7] = assay: Post-emergence herbicidal action against SETVI; conditions: 80 g/ha, visual assessment about 3 weeks after treatment
Outline: as §2

Setaria viridis [8] = assay: Pre-emergence herbicidal action against SETVI; conditions: 320 g/ha
Outline: as §1

Alopecurus myosuroides [9] = assay: Post-emergence herbicidal action against ALOMY; conditions: 80 g/ha
Outline: as §2

Stellaria media [10] = assay: Pre-emergence herbicidal action against STEME
Outline: as §1

Viola tricolor [11] = assay: Post-emergence herbicidal action against VIOTR; conditions: 80 g/ha
Outline: as §2

Matricaria inodora [12] = assay: Pre-emergence herbicidal action against MATIN; conditions: visual score after 3 weeks vs untreated controls
Outline: as §1

Abutilon theophrasti [13] = assay: Post-emergence herbicidal action against ABUTH
Outline: as §2

Viola tricolor [14] = assay: Pre-emergence herbicidal action against VIOTR
Outline: as §1

Polygonum convolvulus [15] = assay: Pre-emergence herbicidal action against POLCO
Outline: as §1

Pharbitis purpurea [16] = assay: Post-emergence herbicidal action against PHBPU; conditions: visual assessment about 3 weeks after treatment
Outline: as §2

Veronica persica [17] = assay: Post-emergence herbicidal action against VERPE; conditions: 80 g/ha, visual assessment about 3 weeks after treatment
Outline: as §2

Polygonum convolvulus [18] = assay: Post-emergence herbicidal action against POLCO; conditions: visual assessment about 3 weeks after treatment
Method: (§3) Seeds of monocotyledonous and dicotyledonous weed and crop plants are laid out in sandy loam soil in wood-fiber pots, covered with soil and cultivated in a greenhouse under good growth conditions. 2 to 3 weeks after sowing, the test plants are treated at the one-leaf stage. The compounds of the invention, formulated in the form of wettable powders (WP) or as emulsion concentrates (EC), are then sprayed onto the green parts of the plants in the form of an aqueous suspension or emulsion at a water application rate equivalent to 600 to 800 l/ha, with addition of 0.2% wetting agent. After the test plants have been left to stand in the greenhouse under optimal growth conditions for about 3 weeks, the action of the preparations is assessed visually in comparison to untreated controls (herbicidal action in percent (%): 100% activity=the plants have died, 0% activity=like control plants). […] The tables below illustrate, in an illustrative manner, the post-emergence herbicidal action of the compounds of the invention, the herbicidal activity being stated in percent.

Stellaria media [19] = assay: Post-emergence herbicidal action against STEME; conditions: visual assessment about 3 weeks after treatment
Outline: as §2

Pharbitis purpurea [20] = assay: Pre-emergence herbicidal action against PHBPU; conditions: 320 g/ha; visual score after 3 weeks vs untreated controls
Outline: as §1

Cyperus esculentus [21] = assay: Post-emergence herbicidal action against CYPES; conditions: visual assessment about 3 weeks after treatment
Method: as §3

Matricaria inodora [22] = assay: Post-emergence herbicidal action against MATIN; conditions: 80 g/ha, visual assessment about 3 weeks after treatment
Outline: as §2

Cyperus esculentus [23] = assay: Pre-emergence herbicidal action against CYPES; conditions: visual score after 3 weeks vs untreated controls
Outline: as §1

Avena fatua [24] = assay: Pre-emergence herbicidal action against AVEFA; conditions: 320 g/ha; visual score after 3 weeks vs untreated controls
Outline: as §1

Avena fatua [25] = assay: Post-emergence herbicidal action against AVEFA; conditions: 80 g/ha, visual assessment about 3 weeks after treatment
Outline: as §2

Echinochloa crus-galli [26] = assay: Post-emergence herbicidal action against ECHCG; conditions: visual assessment about 3 weeks after treatment
Outline: as §2

## CCCn1nnnc1NC(=O)c1ccc(C(F)(F)F)c(C(=O)N2CCCC2)c1Cl [Example 3-152]
Alopecurus myosuroides [1]
  Pre-emergence action against ALOMY: 80%
Echinochloa crus-galli [2]; 80 g/ha
  Pre-emergence action against ECHCG: 80%
Echinochloa crus-galli [2]; 320 g/ha
  Pre-emergence action against ECHCG: 100%
Veronica persica [3]
  Pre-emergence action against VERPE: 100%
Amaranthus retroflexus [4]; 5 g/ha
  Post-emergence action against AMARE in %: 100%
Amaranthus retroflexus [4]; 20 g/ha
  Post-emergence action against AMARE in %: 100%
Amaranthus retroflexus [4]; 80 g/ha
  Post-emergence action against AMARE in %: 100%
Abutilon theophrasti [5]; 20 g/ha
  Pre-emergence action against ABUTH: 100%
Abutilon theophrasti [5]; 80 g/ha
  Pre-emergence action against ABUTH: 100%
Abutilon theophrasti [5]; Dosage column 320 g/ha (heading prints 3200 g/ha)
  Pre-emergence action against ABUTH: 100%
Amaranthus retroflexus [6]; 20 g/ha
  Pre-emergence action against AMARE: 100%
Amaranthus retroflexus [6]; 80 g/ha
  Pre-emergence action against AMARE: 100%
Amaranthus retroflexus [6]; 320 g/ha
  Pre-emergence action against AMARE: 100%
Setaria viridis [7]
  Post-emergence action against SETVI in %: 100%
Setaria viridis [8]
  Pre-emergence action against SETVI: 100%
Alopecurus myosuroides [9]
  Post-emergence action against ALOMY: 80%
Stellaria media [10]; 20 g/ha
  Pre-emergence action against STEME: 100%
Stellaria media [10]; 80 g/ha
  Pre-emergence action against STEME: 100%
Stellaria media [10]; 320 g/ha
  Pre-emergence action against STEME: 100%
Viola tricolor [11]
  Post-emergence action against VIOTR in %: 80%
Matricaria inodora [12]; 20 g/ha
  Pre-emergence action against MATIN: 80%
Matricaria inodora [12]; 80 g/ha
  Pre-emergence action against MATIN: 100%
Matricaria inodora [12]; 320 g/ha
  Pre-emergence action against MATIN: 100%
Abutilon theophrasti [13]; 5 g/ha
  Post-emergence action against ABUTH: 90%
Abutilon theophrasti [13]; 20 g/ha
  Post-emergence action against ABUTH: 100%
Abutilon theophrasti [13]; 80 g/ha
  Post-emergence action against ABUTH: 100%
Viola tricolor [14]; 80 g/ha
  Pre-emergence action against VIOTR: 90%
Viola tricolor [14]; 320 g/ha
  Pre-emergence action against VIOTR: 90%
Polygonum convolvulus [15]; 80 g/ha
  Pre-emergence action against POLCO: 80%
Polygonum convolvulus [15]; 320 g/ha
  Pre-emergence action against POLCO: 90%
Pharbitis purpurea [16]; 20 g/ha
  Post-emergence action against PHBPU in %: 80%
Pharbitis purpurea [16]; 80 g/ha
  Post-emergence action against PHBPU in %: 100%
Veronica persica [17]
  Post-emergence action against VERPE in %: 80%
Polygonum convolvulus [18]; 20 g/ha
  Post-emergence action against POLCO in %: 90%
Polygonum convolvulus [18]; 80 g/ha
  Post-emergence action against POLCO in %: 90%
Stellaria media [19]; 5 g/ha
  Post-emergence action against STEME in %: 80%
Stellaria media [19]; 20 g/ha
  Post-emergence action against STEME in %: 80%
Stellaria media [19]; 80 g/ha
  Post-emergence action against STEME in %: 90%
Pharbitis purpurea [20]
  Pre-emergence action against PHBPU: 100%
Cyperus esculentus [21]; 20 g/ha
  Post-emergence action against CYPES in %: 80%
Cyperus esculentus [21]; 80 g/ha
  Post-emergence action against CYPES in %: 80%
Matricaria inodora [22]
  Post-emergence action against MATIN in %: 90%
Cyperus esculentus [23]; 80 g/ha
  Pre-emergence action against CYPES: 80%
Cyperus esculentus [23]; 320 g/ha
  Pre-emergence action against CYPES: 90%
Avena fatua [24]
  Pre-emergence action against AVEFA: 100%
Avena fatua [25]
  Post-emergence action against AVEFA in %: 100%
Echinochloa crus-galli [26]; 20 g/ha
  Post-emergence action against ECHCG in %: 80%
Echinochloa crus-galli [26]; 80 g/ha
  Post-emergence action against ECHCG in %: 100%
